Assays:
Format in all cases: biochemical
CDK1/Cyclin B1 = CDK1/Cyclin B1 (Homo sapiens (Human), UniProt P06493); assay: CDK1/Cyclin B1 ADP-Glo Kinase Assay
Experimental: CDK1/Cyclin B1 ADP-Glo Kinase Assay
(§1) The purpose of CDK1/Cyclin Bi assay is to evaluate the inhibition (% inhibition and IC50 values) of small molecule inhibitors by using a Luminescent based ADP-Glo assay. CDK1/Cyclin B1 catalyzes the production of ADP from ATP. ADP-Glo assay monitors ADP producing biochemical reactions. ADP-Glo is performed in 2 steps upon completion of kinase reaction: a combined termination of kinase reaction and depletion of remaining ATP in the first step, and conversion of generated ADP to ATP and the newly produced ATP to light output using luciferase/luciferin reaction in the second step. The luminescent signal generated is proportional to the ADP concentration produced and is correlated with the kinase activity. CDK1/Cyclin B1 was purchased from Carna (Cat 04-102). […] The assay was initiated with the addition of ATP-containing substrate solution, following a 30-minute pre-incubation of enzyme and inhibitor at room temperature in the reaction mixture. The reaction was stopped after 90 minutes at room temperature by the addition of 10 μL of ADP-GLO Reagent. After a 90 minute incubation, 20 μL of Kinase Detection Reagent was added. Samples were incubated for 40 minutes, after which plate well luminescence was measured on a Envision microplate reader. The IC50 determinations were made from a plot of the fractional velocity as a function of inhibitor concentration fit to the 4 parameters IC50 equation.

CDK6/Cyclin D3 = CDK6/Cyclin D3 (Homo sapiens (Human), UniProt Q00534); assay: CDK6/Cyclin D3 ADP-Glo Kinase Assay; details: read-out: CDK6/CyclinD3 IC50
Experimental: CDK6/Cyclin D3 ADP-Glo Kinase Assay
as §1, with “of the CDK6/Cyclin D3” for “of CDK1/Cyclin Bi”, “values) in the presence” for “values)”, “assay. CDK6/Cyclin D3” for “assay. CDK1/Cyclin B1”, “activity. CDK6/Cychin D3” for “activity. CDK1/Cyclin B1”, “from Carna.” for “from Carna (Cat 04-102).”, “a 90-minute” for “a 90 minute”

CDK4/Cyclin D1 = CDK4/Cyclin D1 (Homo sapiens (Human), UniProt P11802); assay: CDK4/Cyclin D1 CHEF Assay; details: AQT; read-out: CDK4/CyclinD1 AQT IC50
Text: CDK4/Cyclin D1 CHEF Assay
The purpose of CDK4/Cyclin Dl assay is to evaluate the inhibition (% inhibition and IC50 values) of small molecule inhibitors by using a Chelation-Enhance Fluorescence (CHEF) assay. In a CHEF assay, phosphorylation of a peptide substrate results in proportional increase in fluorescence. CHEF kinase assay use peptide substrates containing a synthetic alpha-amino acid with a side chain bearing an 8-hydroxyquinoline derivative (sulfonamido-oxide, Sox). Upon phosphorylation of a nearby serine, threonine or tyrosine and in the presence of Mg(II), the spectral properties of the Sox residue are altered, emitting 485 nm wavelength light when excited with a 360 nm wavelength light source. CDK4/Cyclin D1 catalyzes the phosphoryl transfer to the SOX-labeled substrate peptide AQT0258 from Assayquant Technologies. […] The reaction was initiated with the addition of substrate solution, following a 30-minute pre-incubation of enzyme and inhibitor at 22° C. in the reaction mix. Reactions were allowed to proceed for 3 hrs at 22° C., followed by fluorescence read of the reaction. The IC50 determinations were made from a plot of the fractional velocity as a function of inhibitor concentration fit to the 4 parameters IC50 equation.

Sequence of CDK1/Cyclin B1 (P06493 whole entry): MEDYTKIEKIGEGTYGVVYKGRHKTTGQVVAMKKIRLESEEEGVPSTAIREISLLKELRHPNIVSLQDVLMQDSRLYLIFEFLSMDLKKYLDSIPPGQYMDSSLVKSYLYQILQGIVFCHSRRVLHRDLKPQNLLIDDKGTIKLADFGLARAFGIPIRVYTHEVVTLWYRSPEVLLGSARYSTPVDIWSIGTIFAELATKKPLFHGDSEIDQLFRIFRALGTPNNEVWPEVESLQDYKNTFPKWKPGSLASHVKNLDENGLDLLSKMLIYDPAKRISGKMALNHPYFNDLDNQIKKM
Sequence of CDK1/Cyclin B1 (P14635 whole entry partner): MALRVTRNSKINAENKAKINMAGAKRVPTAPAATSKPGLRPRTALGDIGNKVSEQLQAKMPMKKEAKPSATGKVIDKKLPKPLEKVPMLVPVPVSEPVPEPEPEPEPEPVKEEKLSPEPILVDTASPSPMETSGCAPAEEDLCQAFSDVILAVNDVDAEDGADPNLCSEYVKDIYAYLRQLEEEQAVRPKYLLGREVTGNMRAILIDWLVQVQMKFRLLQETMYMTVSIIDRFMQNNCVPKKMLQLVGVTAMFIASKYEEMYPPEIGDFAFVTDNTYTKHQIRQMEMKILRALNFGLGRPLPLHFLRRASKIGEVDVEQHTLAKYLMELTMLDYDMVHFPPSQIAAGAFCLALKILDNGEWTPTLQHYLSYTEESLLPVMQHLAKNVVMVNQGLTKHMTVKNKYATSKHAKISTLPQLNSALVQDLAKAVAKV
Sequence of CDK6/Cyclin D3 (Q00534 whole entry): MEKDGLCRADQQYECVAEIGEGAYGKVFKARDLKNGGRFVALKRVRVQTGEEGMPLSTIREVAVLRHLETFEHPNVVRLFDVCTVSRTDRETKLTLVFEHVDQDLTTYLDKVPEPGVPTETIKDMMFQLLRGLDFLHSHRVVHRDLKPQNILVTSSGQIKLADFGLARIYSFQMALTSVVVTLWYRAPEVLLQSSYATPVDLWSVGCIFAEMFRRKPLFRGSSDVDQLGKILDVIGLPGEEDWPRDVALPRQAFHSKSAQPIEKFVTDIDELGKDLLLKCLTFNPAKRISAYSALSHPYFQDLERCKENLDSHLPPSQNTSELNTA
Sequence of CDK6/Cyclin D3 (P30281 whole entry partner): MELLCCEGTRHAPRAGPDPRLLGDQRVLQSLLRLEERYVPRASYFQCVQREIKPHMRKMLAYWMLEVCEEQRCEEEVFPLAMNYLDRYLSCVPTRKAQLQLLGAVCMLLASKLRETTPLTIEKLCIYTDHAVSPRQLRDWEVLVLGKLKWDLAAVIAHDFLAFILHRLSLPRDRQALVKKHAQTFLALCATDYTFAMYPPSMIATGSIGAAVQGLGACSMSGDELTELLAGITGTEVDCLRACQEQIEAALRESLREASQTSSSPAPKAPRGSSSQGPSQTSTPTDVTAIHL
Sequence of CDK4/Cyclin D1 (P11802 whole entry, species assumed): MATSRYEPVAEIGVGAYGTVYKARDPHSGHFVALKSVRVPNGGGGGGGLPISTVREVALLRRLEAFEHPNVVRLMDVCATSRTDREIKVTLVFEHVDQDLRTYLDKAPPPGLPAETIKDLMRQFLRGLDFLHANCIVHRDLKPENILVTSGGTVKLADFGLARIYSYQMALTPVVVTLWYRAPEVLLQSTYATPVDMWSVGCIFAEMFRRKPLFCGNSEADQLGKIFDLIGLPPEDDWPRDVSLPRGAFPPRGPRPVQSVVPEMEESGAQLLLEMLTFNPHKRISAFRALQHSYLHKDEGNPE
Sequence of CDK4/Cyclin D1 (P24385 whole entry partner, species assumed): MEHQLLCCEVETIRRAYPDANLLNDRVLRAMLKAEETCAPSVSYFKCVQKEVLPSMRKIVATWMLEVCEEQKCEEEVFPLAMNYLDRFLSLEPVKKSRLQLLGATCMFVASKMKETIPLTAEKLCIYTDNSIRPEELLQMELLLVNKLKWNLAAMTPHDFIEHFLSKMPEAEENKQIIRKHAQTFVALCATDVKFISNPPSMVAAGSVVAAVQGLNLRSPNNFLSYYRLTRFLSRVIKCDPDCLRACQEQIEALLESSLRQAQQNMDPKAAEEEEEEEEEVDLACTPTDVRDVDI

SMILES | IC50 (CDK1/Cyclin B1) | IC50 (CDK6/Cyclin D3) | IC50 (CDK4/Cyclin D1)
[2H]C([2H])([2H])N1CC2(CN(c3nc(C)cc4cnc(NC5CCN(S(=O)(=O)C6CC6)CC5)nc34)CC2(F)F)C1 [Compound 13, N-(1-(cyclopropylsulfonyl)piperidin-4-yl)-8-(8,8-difluoro-2-(methyl-d3)-2,6-diazaspiro[3.4]octan-6-yl)-6-methylpyrido[3,4-d]pyrimidin-2-amine] | < 200 nM |  | 
CN1C[C@@H]2[C@H](C1)[C@H]2Nc1ncc2ccnc(N3CCC4(CCN(S(C)(=O)=O)C4)C3)c2n1 (stereo partly drawn) [Compound 15, N-((1R,5S,6s)-3-methyl-3-azabicyclo[3.1.0]hexan-6-yl)-8-(7-(methylsulfonyl)-2,7-diazaspiro[4.4]nonan-2-yl) pyrido[3,4-d]pyrimidin-2-amine] | > 2000 nM | > 2000 nM | 
CS(=O)(=O)N1CCC(Nc2ncc3ccnc(N4CC5(CCCC5)c5c(F)cccc54)c3n2)CC1 [Compound 19, 8-(4′-fluorospiro [cyclopentane-1,3′-indolin]-1′-yl)-N-(1-(methylsulfonyl)piperidin-4-yl)pyrido[3,4-d]pyrimidin-2-amine] | > 2000 nM | > 2000 nM | 
CN1Cc2ccc(Nc3ncc4ccnc(N5CCC6(CCN(S(C)(=O)=O)C6)C5)c4n3)cc2C1 (centres unmarked) [Compound 23, N-(2-methylisoindolin-5-yl)-8-(7-(methylsulfonyl)-2,7-diazaspiro[4.4]nonan-2-yl) pyrido[3,4-d]pyrimidin-2-amine] |  | < 200 nM | < 200 nM
CN1Cc2ccc(Nc3ncc4ccnc(N5CC6(C5)CS(=O)(=O)C6)c4n3)cc2C1 [Compound 24, 6-(2-((2-methylisoindolin-5-yl)amino)pyrido [3,4-d]pyrimidin-8-yl)-2-thia-6-azaspiro[3.3] heptane2,2-dioxide] |  | < 200 nM | < 200 nM
Cc1cc2cnc(Nc3ccc(N4CC5(CN(C)C5)C4)cc3)nc2c(N2CCC(C#N)(C3CC3)C2)n1 (centres unmarked) [Compound 28, 3-cyclopropyl-1-(6-methyl-2-((4-(6-methyl-2,6-diazaspiro[3.3]heptan-2-yl)phenyl)amino)pyrido[3,4-d]pyrimidin-8-yl)pyrrolidine-3-carbonitrile] |  | < 200 nM | < 200 nM
Cc1cc2cnc(Nc3cnn(C4CN(CC#N)C4)c3)nc2c(N2CC3(CN(C)C3)C2)n1 [Compound 31, 2-(3-(4-((6-methyl-8-(6-methyl-2,6-diazaspiro[3.3]heptan-2-yl)pyrido[3,4-d]pyrimidin-2-yl)amino)-1H-pyrazol-1-yl)azetidin-1-yl)acetonitrile] | > 2000 nM |  | 
Cc1cc2cnc(NC3CCN(S(=O)(=O)C4CC4)CC3)nc2c(N2CC3(CNC3)C2)n1 [Compound 32, N-(1-(cyclopropylsulfonyl)piperidin-4-yl)-6-methyl-8-(2,6-diazaspiro[3.3]heptan-2-yl) pyrido[3,4-d]pyrimidin-2-amine] |  | < 200 nM | < 200 nM
Cc1cc2cnc(Nc3ccc(N4CC5(CN(C)C5)C4)cc3)nc2c(N2CCC3(C2)CC3(F)F)n1 (centres unmarked) [Compound 34, 8-(1,1-difluoro-5-azaspiro[2.4]heptan-5-yl)-6-methyl-N-(4-(6-methyl-2,6-diazaspiro[3.3]heptan-2-yl)phenyl)pyrido [3,4-d]pyrimidin-2-amine] |  | < 200 nM | < 200 nM
Cc1cc2cnc(Nc3cnn(CC4(N(C)C)CC4)c3)nc2c(N2CCC(C#N)(C3CC3)C2)n1 (centres unmarked) [Compound 38, 3-cyclopropyl-1-(2-((1-((1-(dimethylamino)cyclopropyl)methyl)-1H-pyrazol-4-yl)amino)-6-methylpyrido[3,4-d]pyrimidin-8-yl)pyrrolidine-3-carbonitrile] | > 2000 nM | > 2000 nM | 
Cc1cc2cnc(NC3CCN(S(C)(=O)=O)CC3)nc2c(N2CCC3(C2)CC3(F)F)n1 (centres unmarked) [Compound 41, 8-(1,1-difluoro-5-azaspiro[2.4]heptan-5-yl)-6-methyl-N-(1-(methylsulfonyl)piperidin-4-yl)pyrido[3,4-d]pyrimidin-2-amine] | < 200 nM |  | 
Cc1cc2cnc(Nc3ccc4c(c3)CN(C3CC3)C4)nc2c(N2CC3(CCNC3)C2)n1 [Compound 47] |  | < 200 nM | < 200 nM
Cc1cc2cnc(NC3CCN(S(=O)(=O)C4CC4)CC3)nc2c(N2CC3(CCN(C)C3)C2)n1 [Compound 49, N-(1-(cyclopropylsulfonyl)piperidin-4-yl)-6-methyl-8-(6-methyl-2,6-diazaspiro[3.4]octan-2-yl)pyrido[3,4-d]pyrimidin-2-amine] |  | 200 to 500 nM | < 200 nM
FC(F)c1cc2cnc(Nc3ccc4c(c3)CN(C3CC3)C4)nc2c(N2CC3(CCNC3)C2)n1 [Compound 50, N-(2-cyclopropylisoindolin-5-yl)-6-(difluoromethyl)-8-(2,6-diazaspiro[3.4]octan-2-yl)pyrido[3,4-d]pyrimidin-2-amine] |  | < 200 nM | < 200 nM
Cc1cc2cnc(NC3CCN(S(=O)(=O)CC4CCCC4)CC3)nc2c(N2CC3(CCNC3)C2)n1 [Compound 51, N-(1-((cyclopentylmethyl)sulfonyl)piperidin-4-yl)-6-methyl-8-(2,6-diazaspiro[3.4]octan-2-yl)pyrido[3,4-d]pyrimidin-2-amine] |  | 200 to 500 nM | < 200 nM
COCCN1CC2(C1)CN(c1nc(C3CC3)cc3cnc(NC4CCN(S(=O)(=O)CC5CCC5)CC4)nc13)C2 [Compound 64, N-(1-((cyclobutylmethyl)sulfonyl)piperidin-4-yl)-6-cyclopropyl-8-(6-(2-methoxyethyl)-2,6-diazaspiro[3.3]heptan-2-yl)pyrido [3,4-d]pyrimidin-2-amine] |  | 200 to 500 nM | < 200 nM
Cc1cc2cnc(NC3CCN(S(C)(=O)=O)CC3)nc2c(C2CC(C)(CO)C2)n1 (centres unmarked) [Compound 69, (1-methyl-3-(6-methyl-2-((1-(methylsulfonyl)piperidin-4-yl)amino)pyrido[3,4-d]pyrimidin-8-yl)cyclobutyl) methanol] |  | < 200 nM | < 200 nM
CS(=O)(=O)N1CCC(Nc2ncc3cc(C4CC4)nc(C4CC5(CNCCO5)C4)c3n2)CC1 (centres unmarked) [Compound 70, 6-cyclopropyl-N-(1-(methylsulfonyl)piperidin-4-yl)-8-(5-oxa-8-azaspiro[3.5]nonan-2-yl)pyrido[3,4-d]pyrimidin-2-amine] | < 200 nM |  | 
Cc1cc2cnc(NC3CCN(S(C)(=O)=O)CC3)nc2c(C2CC3(CNCC3(F)F)C2)n1 (centres unmarked) [Compound 99, 8-(8,8-difluoro-6-azaspiro[3.4]octan-2-yl)-6-methyl-N-(1-(methylsulfonyl)piperidin-4-yl)pyrido[3,4-d]pyrimidin-2-amine] | < 200 nM |  | 
[2H]C([2H])([2H])N1CC2(CN(c3nc(C)cc4cnc(NC5CCN(S(=O)(=O)c6cnn(C)c6)CC5)nc34)CC2(F)F)C1 [Example 11, 8-(8,8-difluoro-2-(methyl-d3)-2,6-diazaspiro[3.4]octan-6-yl)-6-methyl-N-(1-((1-methyl-1H-pyrazol-4-yl)sulfonyl)piperidin-4-yl)pyrido[3,4-d]pyrimidin-2-amine] | < 200 nM |  | 
[2H]C([2H])([2H])N1CC2(CN(c3nc(C)cc4cnc(NC5CCN(S(C)(=O)=O)CC5)nc34)CC2(F)F)C1 [Example 12, 8-(8,8-difluoro-2-(methyl-d3)-2,6-diazaspiro[3.4]octan-6-yl)-6-methyl-N-(1-(methylsulfonyl)piperidin-4-yl)pyrido[3,4-d]pyrimidin-2-amine] | < 200 nM |  | 

From patent US20250235456A1, “METHODS OF USE FOR AZA-QUINAZOLINE COMPOUNDS” (Iambic Therapeutics, Inc., priority 2024, published 2025)
